Measured values reported in patent US20260232682A1, “GSPT1 DEGRADER COMPOUNDS” (Captor Therapeutics S.A., priority 2023, published 2026).

How the values were obtained:
[1] = target: [GSPT1]-[compound of formula (I)]-[CRBN/DDB1] complex (Homo sapiens, UniProt P15170+Q96SW2); experiment: AlphaLISA ternary complex formation assay (GSPT1); format: binding; details: 0.5 h; 1 μM compound; normalized to reference compound CC-885; read-out: Normalized AlphaLISA ternary complex average signal at 1 μM molecule
Sequence of [GSPT1]-[compound of formula (I)]-[CRBN/DDB1] complex (P15170 whole entry): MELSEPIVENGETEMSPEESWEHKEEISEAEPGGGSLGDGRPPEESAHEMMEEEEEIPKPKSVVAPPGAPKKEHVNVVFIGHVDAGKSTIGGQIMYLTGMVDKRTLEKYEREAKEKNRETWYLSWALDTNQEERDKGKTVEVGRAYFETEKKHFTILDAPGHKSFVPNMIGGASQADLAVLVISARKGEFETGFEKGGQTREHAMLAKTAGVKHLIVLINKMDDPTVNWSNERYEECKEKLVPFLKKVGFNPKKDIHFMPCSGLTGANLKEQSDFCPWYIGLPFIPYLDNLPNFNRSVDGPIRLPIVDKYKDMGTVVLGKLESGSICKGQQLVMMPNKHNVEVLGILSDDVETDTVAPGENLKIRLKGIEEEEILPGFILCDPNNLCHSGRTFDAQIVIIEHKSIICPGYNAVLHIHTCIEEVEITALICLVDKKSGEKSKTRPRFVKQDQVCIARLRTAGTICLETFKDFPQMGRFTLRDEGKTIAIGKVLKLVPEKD
Sequence of [GSPT1]-[compound of formula (I)]-[CRBN/DDB1] complex (Q96SW2 whole entry): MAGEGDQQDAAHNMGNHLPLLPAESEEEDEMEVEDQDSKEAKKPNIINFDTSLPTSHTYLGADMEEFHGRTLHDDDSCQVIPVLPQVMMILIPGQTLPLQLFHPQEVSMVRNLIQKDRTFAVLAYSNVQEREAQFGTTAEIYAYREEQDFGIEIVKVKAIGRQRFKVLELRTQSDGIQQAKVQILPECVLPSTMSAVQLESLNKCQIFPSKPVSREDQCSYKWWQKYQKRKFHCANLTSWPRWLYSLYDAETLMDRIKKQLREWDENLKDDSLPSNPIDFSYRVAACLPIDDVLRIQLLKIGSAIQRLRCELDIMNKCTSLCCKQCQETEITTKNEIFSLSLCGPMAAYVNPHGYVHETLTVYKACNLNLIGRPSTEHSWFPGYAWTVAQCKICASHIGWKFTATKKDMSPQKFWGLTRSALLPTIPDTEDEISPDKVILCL
Sequence of [GSPT1]-[compound of formula (I)]-[CRBN/DDB1] complex (Q16531 whole entry partner): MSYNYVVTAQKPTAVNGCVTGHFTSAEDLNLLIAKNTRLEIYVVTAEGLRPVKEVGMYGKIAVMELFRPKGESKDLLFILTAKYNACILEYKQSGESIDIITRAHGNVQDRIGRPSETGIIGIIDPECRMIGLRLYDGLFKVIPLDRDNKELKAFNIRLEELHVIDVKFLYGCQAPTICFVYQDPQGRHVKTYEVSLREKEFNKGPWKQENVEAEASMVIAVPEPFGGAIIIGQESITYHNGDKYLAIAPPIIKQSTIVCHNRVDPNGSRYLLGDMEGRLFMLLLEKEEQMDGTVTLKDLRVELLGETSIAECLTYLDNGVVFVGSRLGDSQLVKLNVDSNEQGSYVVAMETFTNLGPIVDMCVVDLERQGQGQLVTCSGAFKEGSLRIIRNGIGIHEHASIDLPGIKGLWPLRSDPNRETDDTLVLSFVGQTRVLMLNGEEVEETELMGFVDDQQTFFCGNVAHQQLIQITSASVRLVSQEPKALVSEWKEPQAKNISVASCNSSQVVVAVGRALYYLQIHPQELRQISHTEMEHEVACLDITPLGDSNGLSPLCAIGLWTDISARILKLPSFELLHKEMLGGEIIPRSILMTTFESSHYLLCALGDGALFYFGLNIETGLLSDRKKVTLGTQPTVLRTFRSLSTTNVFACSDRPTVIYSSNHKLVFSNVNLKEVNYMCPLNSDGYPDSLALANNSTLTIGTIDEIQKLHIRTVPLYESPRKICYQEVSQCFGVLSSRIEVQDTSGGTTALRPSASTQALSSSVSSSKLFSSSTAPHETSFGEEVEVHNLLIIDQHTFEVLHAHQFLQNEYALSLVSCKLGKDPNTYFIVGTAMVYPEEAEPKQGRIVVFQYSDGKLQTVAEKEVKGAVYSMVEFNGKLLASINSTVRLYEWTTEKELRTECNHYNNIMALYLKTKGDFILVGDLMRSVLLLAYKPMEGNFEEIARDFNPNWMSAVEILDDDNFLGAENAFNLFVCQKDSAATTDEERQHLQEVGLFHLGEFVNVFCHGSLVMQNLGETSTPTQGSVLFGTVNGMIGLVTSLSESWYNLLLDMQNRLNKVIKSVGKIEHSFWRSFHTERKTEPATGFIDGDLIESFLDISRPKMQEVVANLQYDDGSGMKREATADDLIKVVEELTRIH
Outline: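 Biotinylated GSPT1 on streptavidin donor beads and 6×His-CRBN/DDB1 on anti-His acceptor beads (each 200 nM before mixing) in HBS pH 7.4 with 0.1% Tween-20 and 1 mM DTT, 2% DMSO final, 30 min at 25 °C. AlphaLISA luminescence is normalized between DMSO background and the reference compound's maximum.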

[2] = target: T1, GSPT1-HiBiT protein in GSPT1-HiBiT HEK293 cells (Homo sapiens, UniProt P15170+Q96SW2); experiment: GSPT1 degradation assay using HiBiT system (Nano-Glo HiBiT lytic assay); format: cell-based; details: 6 hours treatment; for DC50: read-out: HiBiT lytic assay Geomean absolute DC50
T1 construct: endogenous in cells; host or cells: HEK293 (CRISPR/Cas9 knock-in of HiBiT at the GSPT1 locus)
T1 sequence (P15170 whole entry): as the sequence (P15170 whole entry) above
T1 sequence (Q96SW2 whole entry): as the sequence (Q96SW2 whole entry) above
T1 sequence (Q16531 whole entry partner): as the sequence (Q16531 whole entry partner) above
Outline: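 CRISPR-engineered HEK293 cells expressing endogenous C-terminally HiBiT-tagged GSPT1, seeded at 2×10^3/well overnight, then treated 6 h at 37 °C with 12-point titrations (10 μM to 0.03 nM, 0.25% DMSO). Remaining GSPT1 measured by Nano-Glo HiBiT lytic luminescence. DC50 and Dmax from non-linear regression of DMSO-normalized RLU.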

[3] = test system: GSPT1-HiBiT HEK293 cells; experiment: Cell Viability-CTG assay accompanying the Nano-Glo HiBiT assay; format: cell-based; details: 6 hours treatment, viability of GSPT1-HiBiT HEK293 cells
Outline: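 HEK293 GSPT1-HiBiT cells treated as for the HiBiT assay, incubated 6 h at 37 °C/5% CO2, then equilibrated to RT. Viability read by CellTiter-Glo luminescence after 4 min shaking and 8 min dark incubation; Mean Minimum values derived by non-linear regression of RLU data.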

Work on `Cc1nc2cc(COC(=O)Nc3cc(C(F)(F)F)n[nH]3)ccc2cc1C1CCC(=O)NC1=O` (stereo not drawn) [Compound 69, (3-(2,6-dioxopiperidin-3-yl)-2-methylquinolin-7-yl)methyl (3-(trifluoromethyl)-1H-pyrazol-5-yl)carbamate] yielded an activation at 1 µM [1] greater than 50%, a Dmax [2] of no less than 75% and a DC50 [2] of 10 to 50 nM. The “CTG assay Mean minimum” value [3] was “++++ (++++≥75% of viability of the HiBiT-GSPT1 HEK293 cells)”.
In the case of `Cc1nc2cc(COC(=O)Nc3cc(C(C)(C)C)on3)ccc2cc1C1CCC(=O)NC1=O` (stereo not drawn) [Compound 70, (3-(2,6-dioxopiperidin-3-yl)-2-methylquinolin-7-yl)methyl (5-(tert-butyl)isoxazol-3-yl)carbamate], the activation at 1 µM [1] was greater than 50%, the Dmax [2] was no less than 75% and the DC50 [2] was less than 10 nM. For the same molecule, the “CTG assay Mean minimum” value [3] was “++++ (++++≥75% of viability of the HiBiT-GSPT1 HEK293 cells)”.
In the case of `Cc1nc2cc(COC(=O)Nc3cc(C(F)(F)F)no3)ccc2cc1C1CCC(=O)NC1=O` (stereo not drawn) [Compound 71, (3-(2,6-dioxopiperidin-3-yl)-2-methylquinolin-7-yl)methyl (3-(trifluoromethyl)isoxazol-5-yl)carbamate], the activation at 1 µM [1] was greater than 50%, the Dmax [2] was no less than 75% and the DC50 [2] was 50 to 100 nM. The “CTG assay Mean minimum” value [3] was “++++ (++++≥75% of viability of the HiBiT-GSPT1 HEK293 cells)”.
`Cc1nc2cc(COC(=O)Nc3cc(C(C)(C)C)no3)ccc2cc1N1CCC(=O)NC1=O` [Compound 72, (3-(2,4-dioxotetrahydropyrimidin-1(2H)-yl)-2-methylquinolin-7-yl)methyl (3-(tert-butyl)isoxazol-5-yl)carbamate] was tested, and the activation at 1 µM [1] was 10 to 50%, the Dmax [2] was no less than 75% and the DC50 [2] was 10 to 50 nM. The “CTG assay Mean minimum” value [3] was “++++ (++++≥75% of viability of the HiBiT-GSPT1 HEK293 cells)”.
`Cc1ccc(NC(=O)OCc2ccc3cc(C4(F)CCC(=O)NC4=O)c(C)nc3c2)cc1Cl` (stereo not drawn) [Compound 74, (3-(3-fluoro-2,6-dioxopiperidin-3-yl)-2-methylquinolin-7-yl)methyl (3-chloro-4-methylphenyl)carbamate] showed an activation at 1 µM [1] of 10 to 50%, a Dmax [2] of no less than 75% and a DC50 [2] greater than 100 nM. For the same molecule, the “CTG assay Mean minimum” value [3] was “++++ (++++≥75% of viability of the HiBiT-GSPT1 HEK293 cells)”.
`Cc1nc2cc(COC(=O)Nc3cc(C(C)(C)C)n[nH]3)ccc2cc1C1CCC(=O)NC1=O` (stereo not drawn) [Compound 75, (3-(2,6-dioxopiperidin-3-yl)-2-methylquinolin-7-yl)methyl (3-(tert-butyl)-1H-pyrazol-5-yl)carbamate] showed an activation at 1 µM [1] greater than 50%, a Dmax [2] of no less than 75% and a DC50 [2] of 10 to 50 nM. The “CTG assay Mean minimum” value [3] was “++++ (++++≥75% of viability of the HiBiT-GSPT1 HEK293 cells)”.
`Cc1nc2cc(COC(=O)Nc3nc(C(C)(C)C)no3)ccc2cc1C1CCC(=O)NC1=O` (stereo not drawn) [Compound 80, (3-(2,6-dioxopiperidin-3-yl)-2-methylquinolin-7-yl)methyl (3-(tert-butyl)-1,2,4-oxadiazol-5-yl)carbamate] was tested, and the activation at 1 µM [1] was greater than 50%, the Dmax [2] was no less than 75% and the DC50 [2] was 10 to 50 nM. The “CTG assay Mean minimum” value [3] was “++++ (++++≥75% of viability of the HiBiT-GSPT1 HEK293 cells)”.
`Cc1nc2cc(COC(=O)Nc3cc(C4(C(F)(F)F)CC4)no3)ccc2cc1C1CCC(=O)NC1=O` (stereo not drawn) [Compound 81, (3-(2,6-dioxopiperidin-3-yl)-2-methylquinolin-7-yl)methyl (3-(1-(trifluoromethyl)cyclopropyl)isoxazol-5-yl)carbamate] gave an activation at 1 µM [1] greater than 50%, a Dmax [2] of no less than 75% and a DC50 [2] of less than 10 nM. The “CTG assay Mean minimum” value [3] was “++++ (++++≥75% of viability of the HiBiT-GSPT1 HEK293 cells)”.
Molecule `[2H]C([2H])(OC(=O)Nc1cc(C(C)(C)C)no1)c1ccc2cc(C3CCC(=O)NC3=O)c(C)nc2c1` (stereo not drawn) [Compound 82, (3-(2,6-dioxopiperidin-3-yl)-2-methylquinolin-7-yl)methyl-d2 (3-(tert-butyl)isoxazol-5-yl)carbamate] has an activation at 1 µM [1] greater than 50%, a Dmax [2] of no less than 75% and a DC50 [2] of less than 10 nM. The “CTG assay Mean minimum” value [3] was “++++ (++++≥75% of viability of the HiBiT-GSPT1 HEK293 cells)”.
